Laboratory results published in patent US8618154B2, “LXR modulators” (Bristol-Myers Squibb Company, priority 2009, dated 2013).
Read-outs that look alike come from different tables or passages of the source.

Test system: ABCA1 gene expression
Assay: Human whole blood assay (hWBA), ABCA1 mRNA induction
Assay type: cell-based
Settings: for Emax: read-out: hWBA hABCA1 L30 Max P (%)
Method: Human whole blood was collected in EDTA containing tubes and 0.5 mL aliquots were immediately mixed in a 96 well block with the appropriate serial dilution of test compound, in 0.5% DMSO. Compounds were incubated with blood at 37° C. with constant rocking for 4 hours. After incubation, cells were lysed in ABI Nucleic Acid Purification Lysis Solution (Applied Biosystems catalog #4305895) and frozen at −80° C. Following cell lysis, total RNA was purified using an ABI 6100 RNA prep station according to the protocol provided by the manufacturer. cDNAs were synthesized, and mRNAs were quantitated using SYBR-Green Quantitative PCR (Q-PCR) on an ABI Prism 7900HT Sequence Detection System and reagents from Quanta Bioscience Inc (Quanta Bioscience catalog #95047 and 95055).
The quantity of each mRNA was determined by the ΔΔCT method (Michael W. Pfaffl. A new mathematical model for relative quantification in real-time RT-PCR. Nucleic Acids Research, 2001, Vol. 29, No. 9 e45) and normalized to the quantity of two control mRNAs, i.e. ribosomal protein L-30 (L-30) and beta-2-microglobulin (B2M). The induction of ABCA1 and ABCG1 by test compound was graphed as a percent of the reference compound, 2-(4-(5-(5-cyano-1-(2,4-difluorobenzyl)-6-oxo-4-(trifluoromethyl)-1,6-dihydropyridin-2-yl)thiophen-2-yl)-3-methylphenyl)acetic acid, and potency (EC50) and activity (% MAX) were calculated by fitting a sigmoidal response curve as a function of log transformed compound concentration using XLFit software according to the equation y=A+((B−A)/(1+((C/x)^D))).

[1] = Homo sapiens, 4 h, percent of reference pan agonist (maximal activity defined as 100%)
[2] = human whole blood, 4 hours, ABCA1 mRNA normalized to L30, read-out: hWBA hABCA1 L30 EC50

Row | Structure (SMILES) | Emax [1] [%] | EC50 [2] [nM] | EC50 (Homo sapiens, 4 h, read-out: hWBA hABCA1 L30 EC50 (nM)) [nM] | Emax (Homo sapiens, 4 h) [%]
1 | CC(C)(O)c1cn(-c2ccc(-c3cc(F)c(CO)c(S(C)(=O)=O)c3)cc2)c(C(C)(C)c2ccccc2F)n1 [Example 1, 2-(1-(3′-fluoro-4′-(hydroxymethyl)-5′-(methylsulfonyl)biphenyl-4-yl)-2-(2-(2-fluorophenyl)propan-2-yl)-1H-imidazol-4-yl)propan-2-ol] | 28 | < 100 | – | –
2 | Cc1cc(-c2cc(F)c(CO)c(S(C)(=O)=O)c2)ccc1-n1cc(C(C)(C)O)nc1C(C)(C)c1c(F)cccc1Cl [Example 2, 2-(2-(2-(2-chloro-6-fluorophenyl)propan-2-yl)-1-(3′-fluoro-4′-(hydroxymethyl)-3-methyl-5′-(methylsulfonyl)biphenyl-4-yl)-1H-imidazol-4-yl)propan-2-ol] | 18 | < 100 | – | –
3 | CC(C)(O)c1cn(-c2ccc(-c3cc(F)c(CO)c(S(C)(=O)=O)c3)cc2Cl)c(C(C)(C)c2c(Cl)cccc2Cl)n1 [Example 3, 2-(1-(3-chloro-3′-fluoro-4′-(hydroxymethyl)-5′-(methylsulfonyl)biphenyl-4-yl)-2-(2-(2,6-dichlorophenyl)propan-2-yl)-1H-imidazol-4-yl)propan-2-ol] | 16 | < 100 | – | –
4 | CC(C)(O)c1cn(-c2ccc(-c3cc(F)c(CO)c(S(C)(=O)=O)c3)cc2)c(C(C)(C)c2c(Cl)cccc2Cl)n1 [Example 5, 2-(2-(2-(2,6-dichlorophenyl)propan-2-yl)-1-(3′-fluoro-4′-(hydroxymethyl)-5′-(methylsulfonyl)biphenyl-4-yl)-1H-imidazol-4-yl)propan-2-ol] | 43 | < 100 | – | –
5 | CC(C)(O)c1cn(-c2ccc(-c3cc(F)c(CO)c(S(C)(=O)=O)c3)cc2F)c(C(C)(C)c2ccccc2Cl)n1 [Example 6, 2-(2-(2-(2-Chloro-phenyl)propan-2-yl)-1-(3,3′-difluoro-4′-hydroxymethyl-5′-(methylsulfonyl)biphenyl-4-yl)-1H-imidazol-4-yl)-propan-2-ol] | 35 | < 100 | – | –
6 | CC(C)(O)c1cn(-c2ccc(-c3cc(F)c(CO)c(S(C)(=O)=O)c3)cc2F)c(C(C)(C)c2c(F)cccc2Cl)n1 [Example 7, 2-(2-(2-(2-chloro-6-fluorophenyl)propan-2-yl)-1-(3,3′-difluoro-4′-(hydroxymethyl)-5′-(methylsulfonyl)biphenyl-4-yl)-1H-imidazol-4-yl)propan-2-ol] | 33 | < 100 | – | –
7 | CC(C)(O)c1cn(-c2ccc(-c3cc(F)c(CO)c(S(C)(=O)=O)c3)cc2F)c(C(C)(C)c2ccccc2F)n1 [Example 8, 2-{1-(3,3′-Difluoro-4′-hydroxymethyl-5′-methanesulfonyl-biphenyl-4-yl)-2-[2-(2-fluorophenyl)propan-2-yl]-1H-imidazol-4-yl}-propan-2-ol] | 23 | < 100 | – | –
8 | CC(C)(O)c1cn(-c2ccc(-c3cc(F)c(CO)c(S(C)(=O)=O)c3)cc2F)c(Cc2ccc(Cl)cc2Cl)n1 [Example 11, 2-(2-(2,4-dichlorobenzyl)-1-(3,3′-difluoro-4′-(hydroxymethyl)-5′-(methylsulfonyl)biphenyl-4-yl)-1H-imidazol-4-yl)propan-2-ol] | 16 | < 100 | – | –
9 | CC(C)(O)c1cn(-c2ccc(-c3cc(F)c(CO)c(S(C)(=O)=O)c3)cc2F)c(Cc2ccccc2C(F)(F)F)n1 [Example 12, 2-(1-(3,3′-difluoro-4′-(hydroxymethyl)-5′-(methylsulfonyl)biphenyl-4-yl)-2-(2-(trifluoromethyl)benzyl)-1H-imidazol-4-yl)propan-2-ol] | 32 | < 100 | – | –
10 | CC(C)(O)c1cn(-c2ccc(-c3cc(F)c(CO)c(S(C)(=O)=O)c3)cc2Cl)c(Cc2ccc(F)cc2Cl)n1 [Example 13, 2-(1-(3-chloro-3′-fluoro-4′-(hydroxymethyl)-5′-(methylsulfonyl)biphenyl-4-yl)-2-(2-chloro-4-fluorobenzyl)-1H-imidazol-4-yl)propan-2-ol] | 50 | < 100 | – | –
11 | CC(C)(O)c1cn(-c2ccc(-c3cc(F)c(CO)c(S(C)(=O)=O)c3)cc2F)c(Cc2ccc(F)cc2Cl)n1 [Example 14, 2-(2-(2-chloro-4-fluorobenzyl)-1-(3,3′-difluoro-4′-(hydroxymethyl)-5′-(methylsulfonyl)biphenyl-4-yl)-1H-imidazol-4-yl)propan-2-ol] | 24 | < 100 | – | –
12 | CC(C)(O)c1cn(-c2ccc(-c3cc(F)c(CO)c(S(C)(=O)=O)c3)cc2)c(Cc2ccc(Cl)cc2Cl)n1 [Example 15, 2-(2-(2,4-dichlorobenzyl)-1-(3′-fluoro-4′-(hydroxymethyl)-5′-(methylsulfonyl)biphenyl-4-yl)-1H-imidazol-4-yl)propan-2-ol] | 47 | < 100 | – | –
13 | CC(C)(O)c1cn(-c2ccc(-c3cc(F)c(CO)c(S(C)(=O)=O)c3)cc2F)c(Cc2ccccc2F)n1 [Example 16, 2-(1-(3,3′-difluoro-4′-(hydroxymethyl)-5′-(methylsulfonyl)biphenyl-4-yl)-2-(2-fluorobenzyl)-1H-imidazol-4-yl)propan-2-ol] | 41 | < 100 | – | –
14 | Cc1ccccc1Cc1nc(C(C)(C)O)cn1-c1ccc(-c2cc(F)c(CO)c(S(C)(=O)=O)c2)cc1 [Example 17, 2-(1-(3′-fluoro-4′-(hydroxymethyl)-5′-(methylsulfonyl)biphenyl-4-yl)-2-(2-methylbenzyl)-1H-imidazol-4-yl)propan-2-ol] | 20 | < 100 | – | –
15 | CC(C)(O)c1cn(-c2ccc(-c3cc(F)c(CO)c(S(C)(=O)=O)c3)cc2)c(Cc2c(Cl)cccc2Cl)n1 [Example 18, 2-(2-(2,6-dichlorobenzyl)-1-(3′-fluoro-4′-(hydroxymethyl)-5′-(methylsulfonyl)biphenyl-4-yl)-1H-imidazol-4-yl)propan-2-ol] | 51 | < 100 | – | –
16 | CC(C)(O)c1cn(-c2ccc(-c3cc(F)c(CO)c(S(C)(=O)=O)c3)cc2)c(Cc2cc(F)ccc2Cl)n1 [Example 19, 2-[2-(2-Chloro-5-fluoro-benzyl)-1-(3′-fluoro-4′-hydroxymethyl-5′-methanesulfonyl-biphenyl-4-yl)-1H-imidazol-4-yl]-propan-2-ol] | 35 | < 100 | – | –
17 | CC(C)(O)c1cn(-c2ccc(-c3cc(F)c(CO)c(S(C)(=O)=O)c3)cc2F)c(Cc2ccccc2Cl)n1 [Example 20, 2-[2-(2-Chloro-benzyl)-1-(3,3′-difluoro-4′-hydroxymethyl-5′-methanesulfonyl-biphenyl-4-yl)-1H-imidazol-4-yl]-propan-2-ol] | 35 | < 100 | – | –
18 | CC(c1c(Cl)cccc1Cl)c1nc(C(C)(C)O)cn1-c1ccc(-c2cc(F)c(CO)c(S(C)(=O)=O)c2)cc1F (stereo not drawn) [Example 21, 2-{2-[1-(2,6-dichlorophenyl)ethyl]-1-[3,3′-difluoro-4′-(hydroxymethyl)-5′-(methylsulfonyl)biphenyl-4-yl]-1H-imidazol-4-yl}propan-2-ol] | – | – | < 100 | 17
